For this experiment, the system named is T1, PurA.
T1 construct: ORF of 1,551 nt, pET24a(+), His-tagged, E. coli Rosetta2 (DE3), Ni-column; calculated 55,563 Da; monomer
Nature of the experiment: peroxidase-coupled H2O2 assay (DAOS/4-aminoantipyrine). In kind it is biochemical, Paenarthrobacter sp. No. 37. Particulars: oxygen as electron acceptor; Tris-HCl pH 8.0; 28°C; apparent steady-state constants.

For `O=c1c(-c2ccc(O)cc2)coc2c([C@@H]3O[C@H](CO)[C@@H](O)[C@H](O)[C@H]3O)c(O)ccc12` [compound 1, puerarin], the Km – broadly, the substrate concentration at which the rate is half of its maximum – worked out at 43.4 ± 6.6 µM.

The record behind these values is publication PMC12724307, “Characterization of the initial degradation mechanism involved in C-glycosylated isoflavone puerarin in soil microorganism” (Applied and Environmental Microbiology, 2025).
